Tested on: patients with cGVHD
Details: Cohort 1 200 mg QD

CC(C)NC(=O)COc1cccc(-c2nc(Nc3ccc4[nH]ncc4c3)c3ccccc3n2)c1 [Belumosudil, 2-{3-[4-(1H-indazol-5-ylamino)-2-quinazolinyl]phenoxy}-N-(propan-2-yl) acetamide]
Rash erythematous: # Events: 0
Rash erythematous: Affected/At Risk (%): 0/17 (0%)
Rash maculo-papular: # Events: 2
Rash maculo-papular: Affected/At Risk (%): 2/17 (11.76%)
Rash pustular: # Events: 0
Rash pustular: Affected/At Risk (%): 0/17 (0%)
Rash: # Events: 2
Rash: Affected/At Risk (%): 1/17 (5.88%)
Red blood cells urine positive: # Events: 0
Red blood cells urine positive: Affected/At Risk (%): 0/17 (0%)
Renal failure: # Events: 0
Renal failure: Affected/At Risk (%): 0/17 (0%)
Respiratory syncytial virus infection: # Events: 0
Respiratory syncytial virus infection: Affected/At Risk (%): 0/17 (0%)
Respiratory tract infection fungal: # Events: 1
Respiratory tract infection fungal: Affected/At Risk (%): 1/17 (5.88%)
Respiratory tract infection: # Events: 1
Respiratory tract infection: Affected/At Risk (%): 1/17 (5.88%)
Restless legs syndrome: # Events: 0
Restless legs syndrome: Affected/At Risk (%): 0/17 (0%)
Rosacea: # Events: 0
Rosacea: Affected/At Risk (%): 0/17 (0%)
SAE, No. (%): 5 (29)
Sinus pain: # Events: 2
Sinus pain: Affected/At Risk (%): 2/17 (11.76%)
Sinusitis: # Events: 1
Sinusitis: Affected/At Risk (%): 1/17 (5.88%)
Skin abrasion: # Events: 0
Skin abrasion: Affected/At Risk (%): 0/17 (0%)
Skin lesion: # Events: 0
Skin lesion: Affected/At Risk (%): 0/17 (0%)
Skin papilloma: # Events: 1
Skin papilloma: Affected/At Risk (%): 1/17 (5.88%)
Spinal compression fracture: # Events: 1
Spinal compression fracture: Affected/At Risk (%): 1/17 (5.88%)
Squamous cell carcinoma of skin: # Events: 0
Squamous cell carcinoma of skin: Affected/At Risk (%): 0/17 (0%)
Stomatitis: # Events: 2
Stomatitis: Affected/At Risk (%): 1/17 (5.88%)
Superior vena cava syndrome: # Events: 0
Superior vena cava syndrome: Affected/At Risk (%): 0/17 (0%)
TEAE, participants (%): 17 (100%) participants
TESAE, participants (%): 5 (29%) participants
Tachycardia: # Events: 0
Tachycardia: Affected/At Risk (%): 0/17 (0%)
Tendonitis: # Events: 0
Tendonitis: Affected/At Risk (%): 0/17 (0%)
Testicular pain: # Events: 1
Testicular pain: Affected/At Risk (%): 1/17 (5.88%)
Testicular swelling: # Events: 1
Testicular swelling: Affected/At Risk (%): 1/17 (5.88%)
Thoracic spinal stenosis: # Events: 1
Thoracic spinal stenosis: Affected/At Risk (%): 1/17 (5.88%)
Thrombocytopenia: # Events: 0
Thrombocytopenia: Affected/At Risk (%): 0/17 (0%)
Thrombocytosis: # Events: 1
Thrombocytosis: Affected/At Risk (%): 1/17 (5.88%)
Tinea pedis: # Events: 0
Tinea pedis: Affected/At Risk (%): 0/17 (0%)
Tooth fracture: # Events: 0
Tooth fracture: Affected/At Risk (%): 0/17 (0%)
Total other adverse events: Affected/At Risk (%): 17/17 (100%)
Transfusion reaction: # Events: 1
Transfusion reaction: Affected/At Risk (%): 1/17 (5.88%)
Tremor: # Events: 3
Tremor: Affected/At Risk (%): 2/17 (11.76%)
Type 2 diabetes mellitus: # Events: 1
Type 2 diabetes mellitus: Affected/At Risk (%): 1/17 (5.88%)
Ulcerative keratitis: # Events: 0
Ulcerative keratitis: Affected/At Risk (%): 0/17 (0%)
Upper respiratory tract infection: # Events: 16
Upper respiratory tract infection: Affected/At Risk (%): 9/17 (52.94%)
Upper-airway cough syndrome: # Events: 0
Upper-airway cough syndrome: Affected/At Risk (%): 0/17 (0%)
Urinary retention: # Events: 0
Urinary retention: Affected/At Risk (%): 0/17 (0%)
Urinary tract infection: # Events: 0
Urinary tract infection: Affected/At Risk (%): 0/17 (0%)
Urinary tract pain: # Events: 0
Urinary tract pain: Affected/At Risk (%): 0/17 (0%)
Urine output decreased: # Events: 1
Urine output decreased: Affected/At Risk (%): 1/17 (5.88%)
Vascular access complication: # Events: 0
Vascular access complication: Affected/At Risk (%): 0/17 (0%)

Source: patent publication US20260027116A1, “Methods of Treating Chronic Graft-Versus-Host Disease Following Allogeneic Hematopoietic Stem Cell Transplantation” (Kadmon Corporation, LLC, priority 2022, published 2026)
